Measured values taken from ChEMBL document CHEMBL4229365, “Synthesis of novel ring-contracted artemisinin dimers with potent anticancer activities” (Eur J Med Chem, 2018).
Active and inactive are the calls of the source. No cut-off for these calls is given here.

Key:
[1] = Half life in human liver microsomes at 1.11 uM preincubated for 10 mins followed by NADPH addition by LC-MS/MS analysis; assay type: ADME, microsome
[2] = test system: PC-12; experiment: Induction of apoptosis in rat PC12 cells assessed as decrease in Bcl-xL level up to 5 uM after 72 hrs by Western blot analysis; assay type: functional, cell-based
[3] = test system: PC-12; experiment: Induction of apoptosis in rat PC12 cells assessed as increase in Bad protein expression up to 5 uM after 72 hrs by Western blot analysis; assay type: functional, cell-based
[4] = test system: PC-12; experiment: Cell cycle arrest in rat PC12 cells assessed as accumulation at S phase at 3 uM after 24 hrs by propidium iodide/RNase A staining-based flow cytometric analysis (reference value: 30.30%); assay type: functional
[5] = test system: SH-SY5Y; experiment: Antiproliferative activity against human SH-SY5Y cells after 72 hrs by CCK-8 assay; assay type: functional, cell-based
[6] = test system: PC-12; experiment: Cell cycle arrest in rat PC12 cells assessed as accumulation at G2 phase at 3 uM after 24 hrs by propidium iodide/RNase A staining-based flow cytometric analysis (reference value: 11.63%); assay type: functional
[7] = Clearance in human liver microsomes at 1.11 uM preincubated for 10 mins followed by NADPH addition by LC-MS/MS analysis; assay type: ADME, microsome; conditions: read-out: CLH
[8] = test system: HCT-116; experiment: Antiproliferative activity against human HCT116 cells after 72 hrs by CCK-8 assay; assay type: functional, cell-based; conditions: HCT-116, 72 h
[9] = test system: PC-12; experiment: Cell cycle arrest in rat PC12 cells assessed as accumulation at G1 phase at 5 uM after 24 hrs by propidium iodide/RNase A staining-based flow cytometric analysis (reference value: 58.07%); assay type: functional
[10] = test system: A-375; experiment: Antiproliferative activity against human A375 cells after 72 hrs by CCK-8 assay; assay type: functional, cell-based; conditions: A-375, 72 h
[11] = test system: A549; experiment: Antiproliferative activity against human A549 cells after 72 hrs by CCK-8 assay; assay type: functional, cell-based; conditions: A549, 72 h
[12] = test system: PC-12; experiment: Cell cycle arrest in rat PC12 cells assessed as accumulation at S phase at 5 uM after 24 hrs by propidium iodide/RNase A staining-based flow cytometric analysis (reference value: 30.30%); assay type: functional
[13] = test system: PC-12; experiment: Induction of apoptosis in rat PC12 cells assessed as increase in cleaved caspase9 expression level after 72 hrs by Western blot analysis; assay type: functional, cell-based
[14] = test system: PC-12; experiment: Cell cycle arrest in rat PC12 cells assessed as accumulation at S phase at 1 uM after 24 hrs by propidium iodide/RNase A staining-based flow cytometric analysis (reference value: 30.30%); assay type: functional
[15] = test system: PC-12; experiment: Induction of apoptosis in rat PC12 cells assessed as increase in cleaved caspase3 expression level after 72 hrs by Western blot analysis; assay type: functional, cell-based
[16] = test system: L02; experiment: Antiproliferative activity against human L02 cells after 72 hrs by CCK-8 assay; assay type: cell-based; conditions: L02, 72 h
[17] = test system: PC-12; experiment: Induction of apoptosis in rat PC12 cells assessed as increase in Bax protein expression up to 5 uM after 72 hrs by Western blot analysis; assay type: functional, cell-based
[18] = test system: PC-12; experiment: Antiproliferative activity against rat PC12 cells after 72 hrs by CCK-8 assay; assay type: functional, cell-based; conditions: PC-12, 72 h
[19] = test system: PC-12; experiment: Cell cycle arrest in rat PC12 cells assessed as accumulation at G2 phase at 1 uM after 24 hrs by propidium iodide/RNase A staining-based flow cytometric analysis (reference value: 11.63%); assay type: functional
[20] = test system: PC-12; experiment: Induction of apoptosis in rat PC12 cells assessed as nuclear fragmentation up to 3.13 uM after 24 hrs by Hoechst 33258 staining-based fluorescence microscopic method; assay type: functional, cell-based
[21] = test system: PC-12; experiment: Cell cycle arrest in rat PC12 cells assessed as accumulation at G1 phase at 1 uM after 24 hrs by propidium iodide/RNase A staining-based flow cytometric analysis (reference value: 58.07%); assay type: functional
[22] = Stability of the compound in air at 60 degC after 24 hrs; assay type: physicochemical
[23] = test system: PC-12; experiment: Cell cycle arrest in rat PC12 cells assessed as accumulation at G2 phase at 5 uM after 24 hrs by propidium iodide/RNase A staining-based flow cytometric analysis (reference value: 11.63%); assay type: functional
[24] = test system: PC-12; experiment: Induction of apoptosis in rat PC12 cells assessed as nuclear condensation up to 3.13 uM after 24 hrs by Hoechst 33258 staining-based fluorescence microscopic method; assay type: functional, cell-based
[25] = test system: PC-12; experiment: Cell cycle arrest in rat PC12 cells assessed as accumulation at G1 phase at 3 uM after 24 hrs by propidium iodide/RNase A staining-based flow cytometric analysis (reference value: 58.07%); assay type: functional
[26] = test system: PC-12; experiment: Cell cycle arrest in rat PC12 cells assessed as accumulation at G1 phase after 24 hrs by propidium iodide/RNase A staining-based flow cytometric analysis; assay type: functional
[27] = test system: PC-12; experiment: Induction of apoptosis in rat PC12 cells assessed as apoptotic cells up to 3.13 uM after 24 hrs by Annexin V-FITC/propidium iodide staining-based flow cytometric analysis (reference value: 6.56%); assay type: functional

SMILES | half-life at 1.11 µM [1] | IC50 [5] | IC50 [8] | IC50 [10] | IC50 [11] | IC50 [16] | IC50 [18] | further results
C[C@]12CC[C@H]3[C@@H](CCC4=CC(=O)CC[C@@]43C)[C@@H]1CC[C@@H]2O [TESTOSTERONE] | 10.3 min |  |  |  |  |  |  | 
C[C@@H]1CC[C@@H]2[C@]34OO[C@](C)(CC[C@@H]13)O[C@H]4O[C@]2(C)COP(=O)(OC[C@@]1(C)O[C@@H]2O[C@@]3(C)CC[C@H]4[C@H](C)CC[C@@H]1[C@@]24OO3)Oc1ccccc1 | 18.3 min | 3.48 µM | 6.61 µM | 5.96 µM | 6.37 µM | 10.3 µM | 1.56 µM | Activity [2]: Active; Activity [3]: Active; Activity [4]: 13.79%; Activity [6]: 6.81%; microsomal CLint at 1.11 µM [7]: 54 µL/min/mg; Activity [9]: 86.06%; Activity [12]: 10.33%; Activity [13]: Dose-dependent effect; Activity [14]: 14.7%; Activity [15]: Dose-dependent effect; Activity [17]: Active; Activity [19]: 8.77%; Activity [20]: Active; Activity [21]: 76.54%; Stability [22]: Stable; Activity [23]: 3.61%; Activity [24]: Active; Activity [25]: 79.4%; Activity [26]: Dose-dependent effect; Activity [27]: 6.56 - 31.04%
C[C@@H]1CC[C@H]2[C@@H](O)[C@H](OC(=O)CCC(=O)O[C@@H]3O[C@@H]4O[C@@]5(C)CC[C@H]6[C@H](C)CC[C@@H]([C@H]3O)[C@@]46OO5)O[C@@H]3O[C@@]4(C)CC[C@@H]1[C@]32OO4 | 8 min | > 50 µM | 36.3 µM | 33.5 µM | 45.7 µM | > 50 µM | > 50 µM | microsomal CLint at 1.11 µM [7]: 124 µL/min/mg; Stability [22]: Stable
C[C@@H]1CC[C@@H]2[C@]34OO[C@](C)(CC[C@@H]13)O[C@H]4O[C@]2(C)C(=O)Nc1ccccc1NC(=O)[C@@]1(C)O[C@@H]2O[C@@]3(C)CC[C@H]4[C@H](C)CC[C@@H]1[C@@]24OO3 |  | 5.75 µM | 20 µM | 11.3 µM | 31.6 µM | > 50 µM | 18.2 µM | 
C[C@@H]1CC[C@@H]2[C@]34OO[C@](C)(CC[C@@H]13)O[C@H]4O[C@]2(C)C(=O)OCCCCCCOC(=O)[C@@]1(C)O[C@@H]2O[C@@]3(C)CC[C@H]4[C@H](C)CC[C@@H]1[C@@]24OO3 |  | 15.3 µM | > 50 µM | 22.6 µM | > 50 µM | > 50 µM | 33.2 µM | 
COc1cccc2c1C(=O)c1c(O)c3c(c(O)c1C2=O)C[C@@](O)(C(=O)CO)C[C@@H]3O[C@H]1C[C@H](N)[C@H](O)[C@H](C)O1 [DOXORUBICIN] |  | 0.35 µM | 0.79 µM | 0.37 µM | 0.43 µM | 0.85 µM | 0.52 µM | 
C[C@@H]1CC[C@H]2[C@@H](C)C(=O)O[C@@H]3O[C@@]4(C)CC[C@@H]1[C@]32OO4 [ARTEMISININ] |  | > 50 µM | > 50 µM | > 50 µM | > 50 µM | > 50 µM | > 50 µM | 
C[C@@H]1CC[C@@H]2[C@]34OO[C@](C)(CC[C@@H]13)O[C@H]4O[C@]2(C)C(=O)OCCCCCCCCCCOC(=O)[C@@]1(C)O[C@@H]2O[C@@]3(C)CC[C@H]4[C@H](C)CC[C@@H]1[C@@]24OO3 |  | > 50 µM | > 50 µM | 20.8 µM | 29 µM | > 50 µM | > 50 µM | 
C[C@@H]1CC[C@@H]2[C@]34OO[C@](C)(CC[C@@H]13)O[C@H]4O[C@]2(C)C(=O)OCCCCOC(=O)[C@@]1(C)O[C@@H]2O[C@@]3(C)CC[C@H]4[C@H](C)CC[C@@H]1[C@@]24OO3 |  | 6.26 µM | 7.65 µM | 13.2 µM | 6.56 µM | 16.2 µM | 8.52 µM | 
